According to ChEMBL document CHEMBL2073820, “Rifamycin SV and rifampicin exhibit differential inhibition of the hepatic rat organic anion transporting polypeptides, Oatp1 and Oatp2” (Hepatology, 2000):

Assays:
[1] = target: T1, Solute carrier organic anion transporter family member 1A4 (Rattus norvegicus, UniProt O35913); assay: (§1) TP_TRANSPORTER: inhibition of E217betaG uptake in Xenopus laevis oocytes; type: functional, cell-based, Oocyte
T1 sequence (O35913 whole entry): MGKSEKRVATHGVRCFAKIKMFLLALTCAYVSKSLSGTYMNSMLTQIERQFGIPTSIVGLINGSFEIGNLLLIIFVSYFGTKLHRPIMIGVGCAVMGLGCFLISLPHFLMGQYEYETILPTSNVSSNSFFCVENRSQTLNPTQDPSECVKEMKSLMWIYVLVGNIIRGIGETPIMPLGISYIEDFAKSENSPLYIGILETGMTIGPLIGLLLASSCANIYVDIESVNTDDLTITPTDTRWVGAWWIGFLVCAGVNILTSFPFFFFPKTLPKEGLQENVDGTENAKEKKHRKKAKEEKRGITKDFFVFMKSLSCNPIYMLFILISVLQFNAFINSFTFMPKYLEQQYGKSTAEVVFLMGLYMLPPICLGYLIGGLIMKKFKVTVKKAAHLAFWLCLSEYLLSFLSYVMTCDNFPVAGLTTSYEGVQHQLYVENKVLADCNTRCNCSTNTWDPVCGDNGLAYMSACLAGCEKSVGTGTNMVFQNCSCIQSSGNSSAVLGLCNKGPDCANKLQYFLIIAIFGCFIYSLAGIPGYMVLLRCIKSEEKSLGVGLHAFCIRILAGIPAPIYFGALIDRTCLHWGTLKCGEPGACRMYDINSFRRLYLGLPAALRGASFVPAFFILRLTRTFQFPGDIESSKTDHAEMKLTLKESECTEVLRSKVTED

[2] = target: T2, Solute carrier organic anion transporter family member 1A1 (Rattus norvegicus, UniProt P46720); assay: as §1; type: functional, cell-based, Oocyte
T2 sequence (P46720 whole entry): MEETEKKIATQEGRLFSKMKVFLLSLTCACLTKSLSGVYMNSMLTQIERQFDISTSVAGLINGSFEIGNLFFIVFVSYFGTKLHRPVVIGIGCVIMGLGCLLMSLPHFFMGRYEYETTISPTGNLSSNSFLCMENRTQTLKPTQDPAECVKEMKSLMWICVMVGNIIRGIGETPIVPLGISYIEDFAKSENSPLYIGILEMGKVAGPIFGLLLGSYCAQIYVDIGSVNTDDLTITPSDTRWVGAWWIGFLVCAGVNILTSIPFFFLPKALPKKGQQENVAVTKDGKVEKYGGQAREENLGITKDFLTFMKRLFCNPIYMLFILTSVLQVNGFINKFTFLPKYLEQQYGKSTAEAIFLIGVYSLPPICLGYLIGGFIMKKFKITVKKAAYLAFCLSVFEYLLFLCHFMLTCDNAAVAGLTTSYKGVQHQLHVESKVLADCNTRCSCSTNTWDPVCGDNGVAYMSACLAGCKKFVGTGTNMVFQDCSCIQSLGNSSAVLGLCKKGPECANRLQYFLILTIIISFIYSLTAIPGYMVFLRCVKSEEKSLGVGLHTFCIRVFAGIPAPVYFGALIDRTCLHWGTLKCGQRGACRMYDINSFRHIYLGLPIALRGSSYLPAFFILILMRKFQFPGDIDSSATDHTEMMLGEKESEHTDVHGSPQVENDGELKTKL

| Ki [1] | Ki [2] | SMILES |
| --- | --- | --- |
| 7.3 µM | 6.6 µM | CO[C@H]1/C=C/O[C@@]2(C)Oc3c(C)c(O)c4c(O)c(cc(O)c4c3C2=O)NC(=O)/C(C)=C\C=C\[C@H](C)[C@H](O)[C@@H](C)[C@@H](O)[C@@H](C)[C@H](OC(C)=O)[C@@H]1C [RIFAMYCIN] |
| 1.4 µM | – | CO[C@H]1/C=C/O[C@@]2(C)Oc3c(C)c(O)c4c(O)c(c(/C=N/N5CCN(C)CC5)c(O)c4c3C2=O)NC(=O)/C(C)=C\C=C\[C@H](C)[C@H](O)[C@@H](C)[C@@H](O)[C@@H](C)[C@H](OC(C)=O)[C@@H]1C [RIFAMPIN] |
